Assay results from patent US9539298B2, “Lissencephaly therapeutic agent” (OSAKA CITY UNIVERSITY, priority 2010, dated 2017).

Legend:
[1] = test system: LIS1 heterozygous adult mice; test: LIS1 protein in adult mouse brains after SNJ-1945 intraperitoneal administration; assay type: in vivo; details: three weeks after birth
Description: SNJ-1945 was dissolved in dimethyl sulfoxide (DMSO) at a concentration of 100 mg/ml, and intraperitoneally injected to LIS1 heterozygous mice so that the administration amount was 100 μg/per gram of body weight at the time of three weeks after birth. To determine the effect of SNJ-1945 administration, LIS1 proteins of normal adult mice and LIS1 heterozygous adult mice (administered with SNJ-1945) were measured. In the SNJ-1945 administration group, the brain tissues were taken at 0 hour (immediately after the administration), 1 hour, 2 hours, 4 hours, 8 hours, 12 hours, 16 hours, 24 hours, 48 hours, and 72 hours after the administration to measure LIS1 protein, so as to determine the effect of SNJ-1945 over time. Six mice for each group were used for the measurement of LIS1 protein (n=6).
For the measurement of LIS1 protein amount, the weight of the brains was immediately measured as soon as the brains were removed.

[2] = test system: LIS1 heterozygous mice (lissencephaly model mice); test: Behavior analysis: Gait Analysis; assay type: in vivo, mouse; details: 200 μg/g per day oral; for Swing-to-Stance Ratio: FIG. 13
Description: To conduct a behavior analysis experiment, wild-type mice and Lis1 (^+/−) heterozygous mice were divided into five groups (C group, M1 group, M2 group, M3 group, and M4 group). The details regarding the mice in each group are described below. CE-2 (CLEA Japan, Inc.) was used as mice feed. The wild-type mice and heterozygous mice used for this experiment were prepared in the same method as described in the above section “Preparation of LIS1 gene hetero-deficient mice (LIS1 heterozygous mice).”
M2 group: LIS1 heterozygous mice prepared as follows. SNJ-1945 was dissolved in dimethyl sulfoxide (Sigma, D-5879) at a concentration of 100 mg/ml, and administered to pregnant mice from Day 9.5 of the embryonic period (E9.5) in an amount of 200 μg per gram of maternal body weight per day. The administration was performed by adding SNJ-1945 to mice feed. During the postnatal period, the administration was continued in the same manner as in M3 group below. M3 group: LIS1 heterozygous mice prepared as follows. […]
By adding SNJ-1945 to the mice feed (CE-2, CLEA Japan, Inc.), SNJ-1945 was continuously administered to the mice so that the administration amount became 200 μg per gram of body weight per day through oral administration. For a behavior analysis experiment, 12 to 16 mice were grouped to be subjected to preliminary breeding in the behavior experiment facility for 1 to 2 weeks; thereafter, the behavior of the mice was analyzed at an age of about 9 to 12 weeks. After the behavior analysis experiment, a gene type was determined for all mice.
Statistical processing of experiment data of mice behavior analysis was conducted using Stat View (SAS institute) statistics software. ANOVA assay (analysis of variance between multiple groups) was conducted for all five groups, and a group with a risk rate (p value) of less than 5% (p<0.05) was determined to have a significant difference. […]

COCCOCCOC(=O)N[C@@H](CC(C)C)C(=O)N[C@@H](Cc1ccccc1)C(=O)C(=O)NC1CC1 [compound 17, ((1S)-1-((((1S)-1-Benzyl-2,3-dioxo-3-(cyclopropylamino)propyl)amino)carbonyl)-3-methylbutyl)carbamic acid 5-methoxy-3-oxapentyl ester]
LIS1 protein amount in adult brain ([1]; 100 μg per gram of body weight IP, FIG. 8): recovered to substantially the normal level
duration of the effect on LIS1 protein after a single dose ([1]; 100 μg/g IP): continued for at least three days
% Swing ([2]; M2, M3 and M4 groups, FIG. 12): there was no significant difference compared with C group
Swing-to-Stance Ratio ([2]; M2 group (administration from E9.5)): recovered to a level at which there was no significant difference with C group
Swing-to-Stance Ratio ([2]; M3 and M4 groups (administration from birth / postnatal Day 10)): closer to 1 than M1 group
